ChEMBL document CHEMBL1649232 (Antimicrob Agents Chemother, 2009)

How the values were obtained:
[1] = Drug level in sputum of healthy human between 6 to 24 hrs postdosing; format: ADME, tissue-based; conditions: in vivo
[2] = Cmax in healthy human at […] parenteral dose; format: ADME, organism-based; conditions: in vivo

SMILES: CC(=O)N[C@H]1[C@H]([C@H](O)[C@H](O)CO)OC(C(=O)O)=C[C@@H]1N=C(N)N [ZANAMIVIR]
- Drug uptake [1]: 47 ng/mL

SMILES: CCC(CC)[C@H](NC(C)=O)[C@@H]1[C@H](O)[C@@H](C(=O)O)C[C@H]1NC(=N)N [PERAMIVIR ANHYDROUS]
- Cmax [2]: 10 µg/mL
